Test results as given in ChEMBL document CHEMBL1127345, “Synthesis, binding properties, and 18F labeling of fluorocarazolol, a high-affinity beta-adrenergic receptor antagonist” (J Med Chem, 1994).

Test system: Mus musculus
Experiment: The in vivo tissue distribution of mouse bone without Propranolol preadministration in 180 min, value was fractional dose per fractional body weight of the organ
Settings: 3 h

Row | Compound | Dose/organ
1 | CC(C[18F])NC[C@H](O)COc1cccc2[nH]c3ccccc3c12 (some centres not stated) | 1.9
2 | CC(C[18F])NC[C@@H](O)COc1cccc2[nH]c3ccccc3c12 (some centres not stated) | 1.25
